# Assay results from PubChem BioAssay (NCI).
# Where “and” joins values, the source holds several entries; their conditions need not be identical. Equal values may be shown once.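 Tested at 5 concentrations; 48 h exposure; 96-well plates; endpoints linearly interpolated, else capped at highest concentration. Here, GI50 denotes the concentration required for 50% inhibition of growth. TGI marks complete inhibition of growth.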
# Key:
# Assay in all cases: NCI tumour cell line growth inhibition, 48 h
# TK-10 renal = tested on: TK-10 renal
# PC-3 prostate = tested on: PC-3 prostate
# HCC-2998 colon = tested on: HCC-2998 colon
# ACHN renal = tested on: ACHN renal
# HT29 colon = tested on: HT29 colon
# SF-539 CNS = tested on: SF-539 CNS
# UACC-62 melanoma = tested on: UACC-62 melanoma
# SK-OV-3 ovarian = tested on: SK-OV-3 ovarian
# RXF 393 renal = tested on: RXF 393 renal
# A498 renal = tested on: A498 renal
SMILES,GI50 (TK-10 renal) [µM],TGI (TK-10 renal),GI50 (PC-3 prostate) [µM],TGI (PC-3 prostate) [µM],GI50 (HCC-2998 colon) [µM],TGI (HCC-2998 colon),GI50 (ACHN renal) [µM],TGI (ACHN renal),GI50 (HT29 colon),TGI (HT29 colon),GI50 (SF-539 CNS) [µM],TGI (SF-539 CNS),GI50 (UACC-62 melanoma) [µM],TGI (UACC-62 melanoma),GI50 (SK-OV-3 ovarian),TGI (SK-OV-3 ovarian),GI50 (RXF 393 renal) [µM],TGI (RXF 393 renal),TGI (A498 renal),GI50 (A498 renal) [µM]
CC(C)[C@@](O)(c1ccc2cc(OC(F)F)c(OC(F)F)cc2c1)c1cn[nH]n1,14.9,32.9 µM,14.9,36,18.2,35.8 µM,22.6,83.2 µM,18.6 µM,41.6 µM,16.4,32.3 µM,15.1,31 µM,16.2 µM,38.1 µM,15.4,29.8 µM,–,–
O=C(CCc1ccccc1)NS(=O)(=O)c1ccccc1,–,> 100 µM,–,–,–,> 100 µM,–,> 100 µM,–,> 100 µM,–,> 100 µM,–,> 100 µM,–,> 100 µM,–,> 100 µM,> 100 µM,–
CC(C)(C)C(=O)Nc1cccc2oc(-c3ccccc3)cc12,–,–,–,–,–,> 100 µM,–,> 100 µM,–,> 100 µM,–,> 100 µM,–,> 100 µM,–,> 100 µM,–,> 100 µM,> 100 µM,–
NC1CCCCC1N.O=C1C=C/C(=C(/c2ccc(O)c(Br)c2)c2ccccc2S(=O)(=O)[O-])C=C1Br.O=C1C=C/C(=C(/c2ccc(O)c(Br)c2)c2ccccc2S(=O)(=O)[O-])C=C1Br.[Pt+4],57.2,> 100 µM,–,–,4.66,> 100 µM,1.42,> 100 µM,1.67 µM,> 100 µM,2.62,50.8 µM,9.45,> 100 µM,54.2 µM,> 100 µM,19.8,89.7 µM,> 100 µM,22.1
COC(=O)c1ccc(/C=C(\c2ccc([N+](=O)[O-])o2)S(=O)(=O)c2ccc(NC(C)=O)cc2)o1,–,16.2 µM,–,29.8,–,–,–,11.1 µM,–,5.76 µM,–,15.2 µM,–,4.31 µM,–,38.2 µM,–,25.7 µM,–,–
NS(=O)(=O)c1ccc(NC(=O)Cc2nc3ccccc3s2)cc1,–,44.9 µM,–,–,–,35.8 µM,–,29.3 µM,–,35.4 µM,–,32.3 µM,–,29.4 µM,–,40.5 µM,–,32.6 µM,36.8 µM,–
COc1cccc(/C=C/C(=O)c2sc(C(N)=S)nc2C)c1O,–,> 100 µM,–,–,–,> 100 µM,–,> 100 µM,–,> 100 µM,–,97 µM,–,> 100 µM,–,> 100 µM,–,> 100 µM,> 100 µM,–
O=C(O)c1ccc(C(O)(c2ccccc2)c2ccccc2)cc1,–,> 100 µM,–,> 100,–,–,–,> 100 µM,–,–,–,–,–,> 100 µM,–,> 100 µM,–,–,–,–
COc1cc([N+](=O)[O-])c(OC)cc1-c1nc2sc(C)cn2c1/C(N)=N/C(=N)N,20.3,50.4 µM,45.9,> 100,–,–,50.2,> 100 µM,> 100 µM,> 100 µM,27.3,> 100 µM,23.8,52.4 µM,> 100 µM,> 100 µM,39.8,> 100 µM,69.1 µM,27.3
N#CCC(=O)N/N=C1/C(=O)N(c2cc(Cl)ccc2Cl)C(=O)C(=O)C1c1nc2ccccc2s1 (configuration not stated),–,> 100 µM,–,–,–,> 100 µM,–,> 100 µM,–,> 100 µM,–,> 100 µM,–,93.2 µM,–,> 100 µM,–,28.5 µM,> 100 µM,–
COc1cccc(-c2cc(=O)c3cc(N4CCOCC4)ccc3[nH]2)c1,4.84,> 100 µM,0.0281,> 100,0.0236,0.433 µM and 0.0581 µM,0.0709,> 100 µM,0.0359 µM and 0.029 µM,0.883 µM and 0.125 µM,0.0193,0.0505 µM and 0.42 µM,0.041,–,0.0268 µM and 0.044 µM,36.8 µM,–,–,–,–
Cc1ccc(S(=O)(=O)N2CCN(C=S)CC2)cc1,–,> 100 µM,–,–,–,> 100 µM,–,> 100 µM,–,> 100 µM,–,> 100 µM,–,> 100 µM,–,> 100 µM,–,> 100 µM,> 100 µM,–
CC(C)(C)c1cc(CCCCCCCC2(CCCCCCCc3cc(C(C)(C)C)cc(C(C)(C)C)c3)OC(COCCOCCCCCC#N)C(COCCOCCCCCC#N)O2)cc(C(C)(C)C)c1 (configuration not stated),–,> 100 µM,–,–,–,> 100 µM,–,> 100 µM,–,> 100 µM,–,–,–,> 100 µM,–,> 100 µM,–,> 100 µM,> 100 µM,–
Oc1ccc2c3c1OC1c4[nH]ncc4C[C@H]4[C@@H](C2)N(CC2CC2)CC[C@]314 (some centres not stated),–,> 100 µM,–,> 100,–,> 100 µM,–,> 100 µM,–,> 100 µM,–,–,–,> 100 µM,–,> 100 µM,–,> 100 µM,–,–
O=[N+]([O-])c1ccc(C(Cl)C(Cl)c2ccc(C(Cl)C(Cl)c3ccc([N+](=O)[O-])cc3[N+](=O)[O-])cc2)c([N+](=O)[O-])c1 (configuration not stated),0.536,14.5 µM and 2.5 µM,–,–,0.473,6.87 µM and 1.59 µM,0.268,6.04 µM and 0.85 µM,0.313 µM,4.57 µM and 1.08 µM,0.466,5.35 µM and 11.6 µM,0.247,2.37 µM and 0.623 µM,6.36 µM,> 62 µM and 51.1 µM,0.31,2.33 µM and 1.34 µM,11.1 µM and 2.96 µM,1.05
CCOC(=O)C(CCC(N)=O)(CCC(=O)OC)C(=O)OCC,–,> 100 µM,–,–,–,> 100 µM,–,> 100 µM,–,> 100 µM,–,> 100 µM,–,> 100 µM,–,> 100 µM,–,> 100 µM,> 100 µM,–
CCOc1ccc(/C=C/c2cc(OC)c(OC)c(OC)c2)cc1,–,> 100 µM,–,–,–,6.32 µM,–,> 64.8 µM,–,> 100 µM,–,3.02 µM,–,> 100 µM,–,> 30.2 µM,0.448,5 µM,30.4 µM,–
COc1cc(CNCCN2C(=O)c3ccc4c5c(ccc(c35)C2=O)C(=O)N(CCNCc2cc(OC)c(OC)c(OC)c2)C4=O)cc(OC)c1OC,0.78,1.51 µM,–,–,–,–,0.487,1.12 µM,–,–,0.4,1.11 µM,0.552,1.36 µM,0.575 µM,1.19 µM,0.251,0.902 µM,–,–
O=C1C(=C([O-])c2ccccc2)C(=O)c2ccccc21.O=C1C(=C([O-])c2ccccc2)C(=O)c2ccccc21.[Mn+2],> 100,> 100 µM,–,–,> 100,> 100 µM,–,–,43.2 µM,> 100 µM,> 100,> 100 µM,5.48,> 100 µM,–,–,89.6,> 100 µM,–,–
